Source: patent US6469162B1, “Compounds with chelation affinity and selectivity for first transition series elements: use in medical therapy and diagnosis” (Concat, Ltd., priority 1995, dated 2002)

Tests used:
[1] = tested on: mature, nonreplicating cultures of HFF (human foreskin fibroblasts); assay: Toxicity toward nonproliferating mammalian cells in vitro; assay type: cell-based; conditions: 0.3 mM, nonreplicating HFF in maintenance media, five-day period of observation
[2] = Subacute toxicity, repeated intravenous doses to rats; assay type: in vivo, Sprague Dawley rats; conditions: 0.05 millimoles per kg i.v. on 10 days
Source text: Ten male Sprague Dawley rats 29 days old and weighing between 73.4 and 87.8 grams at the beginning of the experiment were randomized, employing the block stratification method, into two groups consisting of five rats each. On each of days 1, 2, 3, 6, 7, 8, 9, 10, 13 and 14 of the experiment one set of rats received an intravenous dose of N,N′,N″-tris(dihydroxyphosphorylmethyl)-1,4,7-triazacyclononane (Example 1 C in U.S. Pat. No. 5,236,695) equal to 0.05 millimoles per kg of initial body weight (experimental group) while the other group received an equivalent volume of normal saline solution. The weights of the animals were recorded three times per week and the animals were sacrificed on the 28th day, major organs removed and weighed and tissues removed for microscopic examination.

[3] = Acute in vivo toxicity, single intravenous dose to mice; conditions: 4.0 mM/kg single intravenous dose, survival for over 14 days
Description: This example illustrates the low in vivo toxicity of a representative ligand administer intravenously to mice.
This in vivo LD50 toxicity dose results in an instantaneous in vivo concentration which is orders of magnitude greater than the dose of this agent which inhibits mammalian cell replication in vitro (0.009 mM/L).

SMILES | effect on resting cells [1] | weight or rate of weight gain, experimental vs control group ([2]; injection period and two-week post-injection period) | microscopic examination of tissues, experimental vs control group ([2]; necropsy on the 28th day) | weights of major organs, experimental vs control group ([2]; sacrificed on the 28th day) | mice surviving [3]
O=P(O)(O)CN1CCN(CP(=O)(O)O)CCN(CP(=O)(O)O)CC1 [N,N′,N″-tris(dihydroxyphosphorylmethyl)-1,4,7-triazacyclononane] | no effect | no statistically significant difference | no differences | no differences | –
O=P(O)(O)CN1CCN(CP(=O)(O)O)CCN(CP(=O)(O)O)CC1 [N,N′,N″-tris-(dihydroxyphosphorylmethyl)-1,4,7-triazacyclononane] | – | – | – | – | Over 50%
